This is an account of results in patent US20070099217A1, “Method for stress evaluation” (priority 2005, published 2007).

Structures are written as SMILES.

Data set [1] deals with Per1 gene. Description: expression of clock genes in liver of mouse given corticosterone (quantitative real time RT-PCR). Type of data set: in vivo. As to the method: This example is intended to investigate the amount of expression of Per1 in a mouse which was given corticosterone.
A mouse was given a prescribed amount of corticosterone, and one hour later, it had its liver extracted. The collected liver was homogenized for quantitative real time RT-PCR in the same way as in Example 2, and the amount of expression of clock genes was determined.
The abscissa represents the dosage (mg/kg) of corticosterone per 1 kg of the mouse's weight. “PBS” denotes the control which was given a phosphate buffer solution in place of corticosterone. “fold induction” on the ordinate represents the amount of expression of Per1 gene (in terms of a relative value, with the value for PBS being 1).
The abscissa represents each clock gene. “fold induction” on the ordinate represents the amount of expression of each clock gene in terms of a relative value, with the value for PBS being 1.
(In qPCR the cycle at which signal appears reflects the starting amount.)

Data set [2] concerns promoter region of Per1 gene. Description: luciferase assay of Per1 promoter constructs in NIH3T3 cells with dexamethazone. Type of data set: cell-based. The settings on record: dexamethazone 0.1 μM, 36 hours after transfection. As to the method:
The second step was luciferase assay to investigate what part of the promoter region of Per1 is associated with stress response.
Luciferase is an enzyme protein that catalyzes bioluminescence. It can be used to estimate the level at which the expression of a specific gene is induced in the following manner. First, a recombinant gene is prepared in which the promoter region of a specific gene is joined to a gene that codes luciferase. Second, the recombinant gene is incorporated into cultured cells. Third, the gene is allowed to express so that the luciferase is allowed to express. Fourth, the intensity of bioluminescence due to luciferase is determined to obtain the level at which luciferase expresses.
An experiment was carried out based on the foregoing principle. It involves preparation of several kinds of DNA differing in the length of the promoter region of Per1 and determination of the expression level of Per1 in the presence of dexamethazone. […] Incidentally, dexamethazone is synthetic glucocorticoid. It is known that the amount of glucocorticoid in blood increases when a living organism experiences stress.
The procedure of the experiment is outlined below. • (1) The first step is to prepare DNAs (P1F, P1K, and P1S), the first one having the entire length of the promoter region of Per1 gene and the second and third ones having the partial length of the promoter region of Per1 gene, with the upstream side cut off. […] The subcultured cells are collected and dissolved 36 hours after transfection. • (4) The fourth step is to prepare a solution from the dissolved cells and measurement of the luminescence intensity by means of Dual Luciferase Assay System (from Promega). […]
FIG. 4C is a graph showing the results of luciferase assay. The abscissa (Relative Luciferase Activity) represents the intensity of luminescence in terms of relative value (%) compared with the intensity of luminescence assigned as 100 of the cultured cells incorporated with the entire length of the promoter region of Per1 gene.
“P1F” denotes the intensity of luminescence from cultured cells incorporated with the entire length of the promoter region of Per1 gene. “P1K” denotes the intensity of luminescence from cultured cells incorporated with the partial length of 3806 bases upstream from the transcription starting region of Per1 gene. “P1S” denotes the intensity of luminescence from cultured cells incorporated with the partial length of 2369 bases upstream from the transcription starting region of Per1 gene. “Vector” denotes the intensity of luminescence from cultured cells (control) incorporated with a blank vector. […] “Dex” and “EtOH” respectively denote the intensity of luminescence from a sample containing dexamethazone and a sample (control) containing ethanol. […]

Data set [3] deals with glucocorticoid receptor (GR) joining to GRE resembling sequence of Per1 gene (Mus musculus, UniProt P06537). The following applies: NIH3T3 cells, 1 hr after treatment with dexamethazone, anti-GR antibody.
glucocorticoid receptor (GR) joining to GRE resembling sequence of Per1 gene, sequence (P06537 whole entry): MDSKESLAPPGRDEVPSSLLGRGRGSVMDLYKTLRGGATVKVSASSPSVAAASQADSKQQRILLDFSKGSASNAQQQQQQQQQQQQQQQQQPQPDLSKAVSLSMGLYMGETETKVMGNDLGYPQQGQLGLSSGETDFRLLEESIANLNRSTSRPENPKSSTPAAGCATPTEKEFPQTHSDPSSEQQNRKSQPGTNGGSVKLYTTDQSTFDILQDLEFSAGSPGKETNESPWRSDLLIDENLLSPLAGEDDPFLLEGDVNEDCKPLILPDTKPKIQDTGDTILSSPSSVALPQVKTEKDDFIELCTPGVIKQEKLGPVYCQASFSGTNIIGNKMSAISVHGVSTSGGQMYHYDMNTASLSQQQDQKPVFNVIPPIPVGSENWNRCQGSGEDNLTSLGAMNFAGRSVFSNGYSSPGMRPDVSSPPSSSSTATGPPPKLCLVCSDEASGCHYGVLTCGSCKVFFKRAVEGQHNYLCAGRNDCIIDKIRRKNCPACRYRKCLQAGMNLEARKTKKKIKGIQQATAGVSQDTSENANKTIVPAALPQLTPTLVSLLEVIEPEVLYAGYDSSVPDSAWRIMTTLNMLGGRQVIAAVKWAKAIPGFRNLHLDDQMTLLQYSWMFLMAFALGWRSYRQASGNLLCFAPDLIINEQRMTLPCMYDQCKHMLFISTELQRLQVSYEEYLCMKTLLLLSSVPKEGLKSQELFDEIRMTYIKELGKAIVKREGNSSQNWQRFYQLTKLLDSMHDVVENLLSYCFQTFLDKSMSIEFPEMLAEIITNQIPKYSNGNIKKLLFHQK
Experimental: First, NIH3T3 cells were treated with dexamethazone to induce the expression of mPer1 gene. The cells were given formaldehyde to fix the binding of protein and chromatin DNA. The chromatin DNA was fragmented by sonication and the resulting fragments underwent immunoprecipitation with anti-GR antibody. The resulting precipitates (as a composite of anti-GR antibody, GR, and chromatin DNA joining to GR) were recovered. The recovered precipitates were heated to remove the DNA-protein crosslinking. The desired sequence was amplified by PCR and the PCR product was identified by electrophoresis.
In other words, the primer was so designed as to specifically amplify the region near the two GRE resembling sequences.
In FIG. 5B, “IP: α-GR” indicates the desired sequence detected by semi-quantitative RT-PCR after immunoprecipitation by means of anti-GR antibody. “IP: αa-normal rabbit IgG” indicates the sequence (control) detected from immunoprecipitation by means of rabbit IgG. In addition, “input” indicates the desired sequence (control) detected by semi-quantitative RT-PCR without immunoprecipitation. “ChIP primer” in the lowermost row indicates the sequence of the primer used for semi-quantitative RT-PCR or the desired sequence which has been amplified. […]

As for `C[C@]12C[C@H](O)[C@H]3[C@@H](CCC4=CC(=O)CC[C@@]43C)[C@@H]1CC[C@@H]2C(=O)CO` [corticosterone], the “amount of expression of each clock gene (fold induction, PBS being 1)” value in data set [1] (one hour after corticosterone 10 mg/kg, FIG. 7B) is reported as “increases the amount of expression of only Per1 gene among clock genes”. The “amount of expression of Per1 gene (fold induction, PBS being 1) versus dosage” value in data set [1] (one hour after corticosterone, dosage in mg/kg, FIG. 7A) is recorded as “increases as the dosage of corticosterone increases”.

As for `C[C@@H]1C[C@H]2[C@@H]3CCC4=CC(=O)C=C[C@]4(C)[C@@]3(F)[C@@H](O)C[C@]2(C)[C@@]1(O)C(=O)CO` [dexamethazone], the “intensity of luminescence, P1FpM” value in data set [2] (P1F with GRE resembling sequence mutated in its downstream, FIG. 4D) is “high intensity of luminescence”. Also, the “intensity of luminescence, P1FdM” value in data set [2] (P1F with GRE resembling sequence mutated in its upstream, FIG. 4D) is recorded as “a little lower intensity of luminescence”. The “Relative Luciferase Activity (intensity of luminescence), P1K” value in data set [2] (P1K promoter (3806 bases upstream, two GRE resembling sequences), vs EtOH, FIG. 4C) was “high intensity of luminance”. In addition, the “Relative Luciferase Activity (intensity of luminescence), P1S” value in data set [2] (P1S promoter (2369 bases upstream, one GRE resembling sequence), vs EtOH, FIG. 4C) is on record as “certain intensity of luminance”. Besides, in data set [3] (FIG. 5B), the “detection of dGRE and pGRE sequences by semi-quantitative RT-PCR after immunoprecipitation” value is reported as “the desired band was detected”. For the same compound, the “amount of dGRE and pGRE DNA amplified (%input) by quantitative real time RT-PCR after immunoprecipitation” value in data set [3] (FIG. 5C) was “greatly amplifies”.
